Drawing on US8362000B2, “Azetidinyl diamides as monoacylglycerol lipase inhibitors” (Janssen Pharmaceutica NV, priority 2009, dated 2013), this text covers Kd for 43 compounds.

Some results are limits rather than exact numbers.

The Kd is a measure of binding affinity in units of concentration.

In the first experiment the target is T1, mutant MGL (Homo sapiens, UniProt Q99685, L169S/L176S).
T1 sequence (Q99685 1-303 L169S/L176S): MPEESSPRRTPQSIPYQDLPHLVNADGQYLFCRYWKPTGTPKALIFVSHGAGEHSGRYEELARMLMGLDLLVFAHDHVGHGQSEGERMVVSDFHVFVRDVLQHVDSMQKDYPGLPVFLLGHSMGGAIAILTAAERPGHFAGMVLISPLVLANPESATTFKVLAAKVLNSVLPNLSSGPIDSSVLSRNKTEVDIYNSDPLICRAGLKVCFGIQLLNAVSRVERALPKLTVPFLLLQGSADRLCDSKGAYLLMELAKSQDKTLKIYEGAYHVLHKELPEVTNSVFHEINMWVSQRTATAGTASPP
The experiment can be described thus: MGL ThermoFluor assay - mutant. To be noted: ThermoFluor concentration-response, read-out: MGL mutant ThermoFluor Kd. It is filed as binding.
Consider `O=C(c1ccc2c(ccn2C(=O)c2ccc3c(c2)CCN3)c1)N1CC(N2CCN(C(=O)c3nccs3)CC2)C1` [Cpd 988, 1-(2,3-Dihydro-1H-indol-5-ylcarbonyl)-5-({3-[4-(1,3-thiazol-2-ylcarbonyl)piperazin-1-yl]azetidin-1-yl}carbonyl)-1H-indole], for which the Kd is 0.04 µM. Still for that read-out and setting: in the case of `O=C(c1ccc(-c2ccccc2)cc1)N1CCN(C2CN(C(=O)c3ncccn3)C2)CC1` [Cpd 1400, 2-({3-[4-(Biphenyl-4-ylcarbonyl)piperazin-1-yl]azetidin-1-yl}carbonyl)pyrimidine] it was 4.07 µM; in that of `O=C(c1ccc2c(ccn2-c2ncc(F)cn2)c1)N1CC(N2CCN(C(=O)c3cscn3)CC2)C1` [Cpd 1248, 1-(5-Fluoropyrimidin-2-yl)-5-({3-[4-(1,3-thiazol-4-ylcarbonyl)piperazin-1-yl]azetidin-1-yl}carbonyl)-1H-indole], 0.043 µM; in that of `O=C(c1ccccc1)N1CCN(C2CN(C(=O)c3cccc(NCc4ccccc4)c3)C2)CC1` [Cpd 531, N-Benzyl-3-({3-[4-(phenylcarbonyl)piperazin-1-yl]azetidin-1-yl}carbonyl)aniline], 2.73 µM.

Consider `O=C(/C=C/c1ccccc1Br)N1CC(N2CCN(C(=O)c3ccccc3)CC2)C1` [Cpd 104, 1-{1-[(2E)-3-(2-Bromophenyl)prop-2-enoyl]azetidin-3-yl}-4-(phenylcarbonyl)piperazine], for which the equilibrium dissociation constant (Kd) was 5 µM.

In the case of `O=C(c1ccccc1)N1CCN(C2CN(C(=O)c3cccnc3Oc3ccccc3)C2)CC1` [Cpd 110, 1-{1-[(2-Phenoxypyridin-3-yl)carbonyl]azetidin-3-yl}-4-(phenylcarbonyl)piperazine], the Kd came out at 5 µM. Still for that read-out and setting: in the case of `O=C(c1ccccc1)N1CCN(C2CN(C(=O)C3CCC(c4ccc(Cl)cc4)CC3)C2)CC1` (stereo not shown) [Cpd 503] it was 0.254 µM; in that of `CC(C)(C)OC(=O)N1CCC(c2ccc(C(=O)N3CC(N4CCN(C(=O)c5ccccc5)CC4)C3)cc2)CC1` [Cpd 109, tert-Butyl 4-[4-({3-[4-(phenylcarbonyl)piperazin-1-yl]azetidin-1-yl}carbonyl)phenyl]piperidine-1-carboxylate], 0.0333 µM; in that of `O=C(c1ccccc1)N1CCN(C2CN(C(=O)c3ccc(N4CCCCC4)cc3)C2)CC1` [Cpd 53, 1-(Phenylcarbonyl)-4-{1-[(4-piperidin-1-ylphenyl)carbonyl]azetidin-3-yl}piperazine], 0.1 µM. For the compound `COc1cc(NCc2ccccc2)c(Cl)cc1C(=O)N1CC(N2CCN(C(=O)c3ccccc3)CC2)C1` [Cpd 529], the Kd is 0.317 µM. As to `O=C(c1ccccc1)N1CCN(C2CN(C(=O)C3CCC(C(F)(F)F)CC3)C2)CC1` (stereo not shown) [Cpd 502], the dissociation constant (Kd) is > 76.7 µM. On the same count and under the same terms, in the case of `CC(C)(C)OC(=O)N1CCC(c2ccccc2C(=O)N2CC(N3CCN(C(=O)c4ccccc4)CC3)C2)C1` (stereo not shown) [Cpd 111, tert-Butyl 3-[2-({3-[4-(phenylcarbonyl)piperazin-1-yl]azetidin-1-yl}carbonyl)phenyl]pyrrolidine-1-carboxylate] it was 10 µM; in that of `CCCn1ccc2cc(C(=O)N3CC(N4CCN(C(=O)c5ccccc5)CC4)C3)ccc21` [Cpd 42, 5-({3-[4-(Phenylcarbonyl)piperazin-1-yl]azetidin-1-yl}carbonyl)-1-propyl-1H-indole], 0.0833 µM; in that of `O=C(c1ccc(Oc2ccccn2)cc1)N1CC(N2CCN(C(=O)c3nccs3)CC2)C1` [Cpd 913, 1-(1-{[4-(Pyridin-2-yloxy)phenyl]carbonyl}azetidin-3-yl)-4-(1,3-thiazol-2-ylcarbonyl)piperazine], 1 µM. The same measure, in the same setting: to `O=C(c1ccc(Cc2ccccc2)cc1)N1CC(N2CCN(C(=O)c3ccccc3)C(CO)C2)C1` (stereo not shown) [Cpd 459, [4-{1-[(4-Benzylphenyl)carbonyl]azetidin-3-yl}-1-(phenylcarbonyl)piperazin-2-yl]methanol] belongs 3.33 µM.

`O=C(c1ccccc1)N1CCN(C2CN(C(=O)c3ccc(NCc4ccccc4Cl)cc3)C2)CC1` [Cpd 492, N-(2-Chlorobenzyl)-4-({3-[4-(phenylcarbonyl)piperazin-1-yl]azetidin-1-yl}carbonyl)aniline]: the dissociation constant Kd was found to be 0.167 µM. Same read-out and setting: in the case of `Cn1cccc1C(=O)N1CCN(C2CN(C(=O)c3ccc(-c4ccccc4)cc3)C2)CC1` [Cpd 11, 1-[1-(Biphenyl-4-ylcarbonyl)azetidin-3-yl]-4-[(1-methyl-1H-pyrrol-2-yl)carbonyl]piperazine] it was 0.454 µM; in that of `O=C(c1ccccc1)N1CCN(C2CN(C(=O)c3ccc(NCc4ccc5ccccc5c4)cc3)C2)CC1` [Cpd 491, N-(Naphthalen-2-ylmethyl)-4-({3-[4-(phenylcarbonyl)piperazin-1-yl]azetidin-1-yl}carbonyl)aniline], 0.1 µM.

In the case of `O=C(c1ccccc1)C1CCC(C(=O)N2CC(N3CCN(C(=O)c4cscn4)CC3)C2)CC1` (stereo not shown) [Cpd 478], the Kd was 2 µM. `O=C(c1ccccc1)N1CCN(C2CN(C(=O)c3ccc(-n4cccc4)cc3)C2)CC1` [Cpd 28, 1-(Phenylcarbonyl)-4-(1-{[4-(1H-pyrrol-1-yl)phenyl]carbonyl}azetidin-3-yl)piperazine]: the Kd worked out at 0.37 µM.

In the case of `O=C(c1cscn1)N1CCN(C2CN(C(=O)C3CCC(c4ccc(Cl)cc4)CC3)C2)CC1` (stereo not shown) [Cpd 643], the Kd worked out at 1 µM.

Regarding `O=C(c1ccc(Oc2cccc(Cl)c2)cc1)N1CC(N2CCN(C(=O)c3nccs3)CC2)C1` [Cpd 421, 1-(1-{[4-(3-Chlorophenoxy)phenyl]carbonyl}azetidin-3-yl)-4-(1,3-thiazol-2-ylcarbonyl)piperazine], the dissociation constant Kd turned out to be 0.004 µM. Still for that read-out and setting: in the case of `O=C(c1ccccc1)N1CCN(C2CN(C(=O)c3ccc(CNc4ccc(F)c(F)c4F)cc3)C2)CC1` [Cpd 557] it was 0.114 µM.

As to `O=C(c1ccccc1)N1CCN(C2CN(C(=O)c3ccc(NCc4ccc(Cl)c(Cl)c4)cc3)C2)CC1` [Cpd 493, N-(3,4-Dichlorobenzyl)-4-({3-[4-(phenylcarbonyl)piperazin-1-yl]azetidin-1-yl}carbonyl)aniline], the Kd was found to be 0.025 µM. The same measure, in the same setting: to `O=C(c1cscn1)N1CCN(C2CN(C(=O)c3ccc(Br)cc3Cl)C2)CC1` [Cpd 25, 1-{1-[(4-Bromo-2-chlorophenyl)carbonyl]azetidin-3-yl}-4-(1,3-thiazol-4-ylcarbonyl)piperazine] belongs 10 µM; to `COc1cc(C(=O)N2CC(N3CCN(C(=O)c4nccs4)CC3)C2)ccc1-c1ccccc1` [Cpd 1377], 0.006 µM.

`O=C(c1cc(Br)cc(C(F)(F)F)c1)N1CC(N2CCN(C(=O)c3nccs3)CC2)C1` [Cpd 910]: the dissociation constant Kd amounted to 1.33 µM. As for `O=C(c1ccccc1)N1CCN(C2CN(C(=O)C3CCC(c4ccccc4)CC3)C2)CC1` (stereo not shown) [Cpd 106, 1-(Phenylcarbonyl)-4-{1-[(4-phenylcyclohexyl)carbonyl]azetidin-3-yl}piperazine], the equilibrium dissociation constant (Kd) stood at 0.154 µM.

Still in this experiment, the particulars now being: ThermoFluor thermal stability binding assay, read-out: MGL mutant ThermoFluor Kd.
With `O=C(c1nccs1)N1CCN(C2CN(C(=O)c3nc(-c4ccccc4)oc3C(F)(F)F)C2)CC1` [Cpd 1385], the Kd came out at 0.206 µM.

Regarding `O=C(c1cscn1)N1CCN(C2CN(C(=O)c3cc(-c4ccccc4)oc3C(F)(F)F)C2)CC1` [Cpd 1397], the Kd was determined as 0.5 µM. In the case of `O=C(c1ccccc1)N1CCN(C2CN(C(=O)c3ccc4oc(-c5ccccc5)nc4c3)C2)CC1` [Cpd 132], the Kd came out at 0.25 µM. As for `O=C(c1cscn1)N1CCN(C2CN(C(=O)c3nc(-c4ccccc4)oc3C(F)(F)F)C2)CC1` [Cpd 1403], the Kd came out at 1.69 µM.

For `O=C(c1ccc(-c2ccccc2)cc1)N1CC(N2CCN(C(=O)c3cnon3)CC2)C1` [Cpd 308], the dissociation constant (Kd) worked out at 10 µM. In the case of `O=C(c1cscn1)N1CCN(C2CN(C(=O)c3cnn(-c4ccccc4)c3C(F)(F)F)C2)CC1` [Cpd 1477], the equilibrium dissociation constant (Kd) is > 31.2 µM. The same measure, in the same setting: in the case of `O=C(c1ccccc1)N1CCN(C2CN(C(=O)c3ccc(-c4cccc(C(F)(F)F)c4)cc3F)C2)CC1` [Cpd 246, 1-(1-{[3-Fluoro-3′-(trifluoromethyl)biphenyl-4-yl]carbonyl}azetidin-3-yl)-4-(phenylcarbonyl)piperazine] it was 0.0167 µM; in that of `O=C(c1ccc(OCc2ccc(Cl)s2)cc1)N1CC(N2CCN(C(=O)c3nccs3)CC2)C1` [Cpd 962], 0.005 µM; in that of `O=C(c1ccccc1)N1CCN(C2CN(C(=O)c3ccc(OCc4cccc(OC(F)(F)F)c4)cc3)C2)CC1` [Cpd 393], 0.0909 µM. The same measure, in the same setting: to `O=C1Cc2cc(C(=O)N3CC(N4CCN(C(=O)c5nccs5)CC4)C3)ccc2N1` [Cpd 918] belongs 2.5 µM; to `O=C(c1nccs1)N1CCN(C2CN(C(=O)c3cccc4nc(Cc5cccc(F)c5)[nH]c34)C2)CC1` [Cpd 990], 1 µM. Same read-out and setting: in the case of `O=C(c1ccc2c(c1)CCCN2c1ccccc1)N1CC(N2CCN(C(=O)c3nccs3)CC2)C1` [Cpd 372, 1-Phenyl-6-({3-[4-(1,3-thiazol-2-ylcarbonyl)piperazin-1-yl]azetidin-1-yl}carbonyl)-1,2,3,4-tetrahydroquinoline] it was 0.0494 µM. For `COc1cc(C(=O)N2CC(N3CCN(C(=O)c4nccs4)CC3)C2)ccc1-c1cccc(C(F)(F)F)c1` [Cpd 247, 1-(1-{[2-Methoxy-3′-(trifluoromethyl)biphenyl-4-yl]carbonyl}azetidin-3-yl)-4-(1,3-thiazol-2-ylcarbonyl)piperazine], the Kd was 0.0004 µM. On the same count and under the same terms, to `Cc1cc(C(=O)N2CC(N3CCN(C(=O)c4nccs4)CC3)C2)ccc1-c1cccc(C(F)(F)F)c1` [Cpd 241, 1-(1-{[2-Methyl-3′-(trifluoromethyl)biphenyl-4-yl]carbonyl}azetidin-3-yl)-4-(1,3-thiazol-2-ylcarbonyl)piperazine] belongs 0.0005 µM. Same read-out and setting: to `CS(=O)(=O)N1CCCc2cc(C(=O)N3CC(N4CCN(C(=O)c5cscn5)CC4)C3)ccc21` [Cpd 362] belongs 2.4 µM.
